{"source": "patent US20230320984A1", "about": "“TOFACITINIB-CONTAINING ANHYDROUS ELASTOMER-BASED GEL FORMULATIONS” (Vyne Therapeutics Inc., priority 2022, published 2023)", "key": {"[1]": {"system": "Human skin from cosmetic reduction surgery", "test": "Skin penetration (IVPT), vertical diffusion cell (Method A)", "format": "in vitro ADME", "protocol": "The skin is dosed with approx. 6 mg of formulation to achieve a dose of ˜ 10 mg/cm2. Receptor solution is collected at pre-determined intervals over the course of 24 hours and analyzed using a liquid chromatography with tandem mass spectrometry (LC-MS/MS) analytical method.\nFollowing 24 hours, the residual formulation is removed from the surface of the skin. The skin surface is tape-stripped up to five times to remove residual formulation and the top of the skin surface layers (Stratum Corneum). The epidermis is then heat-separated from the dermis. The active agent is extracted from the skin layers and the amount of active agent delivered to the epidermis and dermis is then determined by LC-MS/MS."}, "[2]": {"test": "Chemical stability of formulations (Method H)", "format": "physicochemical", "settings": "gel with Tofacitinib Citrate 1.0% and Fingolimod HCl 0.01% (Table 38)", "protocol": "Where another active agent such as fingolimod is present in the formulations the samples are analyzed for that active agent and its degradation products by HPLC. […] The gradient elution is employed."}, "[3]": {"system": "Reconstructed Human Epidermis (RHE) exposed to Th2 cytokines IL-4, IL-13, IL-25", "test": "Reconstructed Human Epidermis Th2 model for AD efficacy (Method S)", "format": "cell-based", "settings": "48 h", "protocol": "Reconstructed Human Epidermis (RHE) tissues are produced and grown by StratiCELL. To generate the morphological and functional aspects of AD, RHE samples are exposed to Th2 cytokines IL-4, IL-13, IL-25. Th-2 cytokines are applied for 48 h in the culture medium of epidermis. Test formulations are applied simultaneously with the cytokines on the stratum corneum of the epidermis during the same 48 h. The tissue morphology is assessed by histology and hemalum/eosin (H/E) staining—quantification of a fluorescent dye (biotin) diffusion through the epidermis in order to evaluate the barrier function."}, "[4]": {"test": "Visual solubility evaluation of Fingolimod free base", "format": "physicochemical", "settings": "for solubility: organic solvent or mixture, thermodynamic from solid, visual, RT", "protocol": "A visual solubility evaluation of Fingolimod free base was performed."}, "[5]": {"settings": "human, in vivo", "description": "Values below the limit of concentration are omitted from determination of geometric mean and geometric % CV.\nSamples designated for analysis of fingolimod and fingolimod phosphate are collected and processed for shipment to bioanalytical laboratories. Frozen samples are thawed at room temperature and homogenized by vortexing. 10 μL of ISTD working solution (WS ISTD2 50 ng/mL in methanol/water, 50/50, V/V) is addeded to Eppendorf tubes each containing 200 sample (exception blank samples for which 10 μL of methanol/water, 50/50, V/V is added). Samples are vortexed for 5 sec and 800 μL of acetonitrile is added to each sample and vortexed for additional 10 sec. Next samples are centrifuged for 10 min at 14000 rpm at 5° C. and 900 μL is transferred to hemolyse tube. The samples are evaporated at approximately 40° C. […]\nWhole blood is analyzed for concentration of fingolimod and fingolimod phosphate using a validated analytical procedure for the simultaneous quantitation of both analytes. […] After, the analyte is separated on a Kinetex Biphenyl column (50×3.0 mm, 2.6 μm) and analyzed using electrospray ionization (ESI) tandem mass spectrometry (MS/MS) in the multiple reaction monitoring mode (MRM). […]"}, "[6]": {"settings": "cited from earlier work"}, "[7]": {"test": "Toxicokinetics / pK in minipigs (Method T)", "settings": "day 1; tofacitinib 0.6% fingolimod 0.005% gel group", "description": "(§1) The animals are not fasted prior to blood collection, with the exception of the intervals that coincide with fasting for clinical pathology collections.\n(§2) If necessary, the samples are frozen on dry ice prior to being placed in the freezer. […] Samples are stored at the bioanalytical laboratories in a freezer set to maintain −80±10° C. until analysis.\n(§3) Samples designated for analysis of fingolimod and fingolimod phosphate are mixed gently, lysed with an equal volume of deionized water, vortexed for approximately 1 minute, divided into two approximately equal aliquots, transferred to uniquely labeled polypropylene tubes and frozen in a freezer set to maintain −70° C. If necessary, the samples are frozen on dry ice prior to being placed in the freezer. The samples for fingolimod analysis are shipped with a temperature monitoring device to bioanalytical laboratories. Samples are stored at the bioanalytical laboratories in a freezer set to maintain −75±15° C. until analysis.\n(§4) Whole blood is analyzed for concentration of fingolimod and fingolimod phosphate using a validated analytical procedure for the simultaneous quantitation of both analytes.\n(§5) TK samples collected on Days 49 and 56 from recovery animals in Groups 1, 2, 3, 5, and 6 are also analyzed. […]"}, "[8]": {"test": "Human equivalent dose, safety factor and predicted exposure from the minipig NOAEL"}, "[9]": {"settings": "minipig, in vivo", "description": "as §1, §2, §3, §4, §5"}, "[10]": {"system": "S1P receptors (S1P1 and S1P3-5)", "settings": "cited from earlier work"}, "[11]": {"settings": "estimated from Table 43a, epidermis assumed 80 μm, skin 500 μm, density 1.0 g/cm^3"}, "[12]": {"settings": "gel with Fingolimod HCl […] (Table 42), Mean (n = 5)"}, "[13]": {"settings": "gel with Tofacitinib Citrate 1.0% and Fingolimod HCl 0.01% (Table 43a), Mean (n = 5)"}}, "note": "Like-named read-outs stand apart in the source and are kept apart here."}
{"compound": "CCCCCCCCc1ccc(CCC(N)(CO)CO)cc1", "note": "[fingolimod, 2-amino-2-[2-(4-octylphenyl)ethyl]propane-1,3-diol]", "values": [{"measurement": "Dermis concentration, μg/g Based on the Mean (n = 5)", "setting": "[1]; [11]", "result": 0.6, "unit": "µg/g"}, {"measurement": "Epidermis concentration, μg/g Based on the Mean (n = 5)", "setting": "[1]; [11]", "result": 3.4, "unit": "µg/g"}, {"measurement": "estimated concentration of active in dermis", "setting": "[1]; formulation with 1.0% tofacitinib citrate and […] fingolimod hydrochloride", "result": 0.6, "unit": "µg/mL"}, {"measurement": "estimated concentration of active in epidermis", "setting": "[1]; formulation with 1.0% tofacitinib citrate and […] fingolimod hydrochloride, epidermis assumed 80 μm", "result": 3.4, "unit": "µg/g"}, {"measurement": "Amount of Fingolimod recovered, % applied dose, Dermis", "setting": "[1]; [12]", "result": 2.59, "unit": "%"}, {"measurement": "Amount of Fingolimod recovered, % applied dose, Epidermis", "setting": "[1]; [12]", "result": 1.98, "unit": "%"}, {"measurement": "Amount of Fingolimod recovered, % applied dose, Receptor fluid", "setting": "[1]; [12]", "result": "ND (not detected (below LOQ of 0.25 ng/mL))"}, {"measurement": "Amount of Fingolimod recovered, ng, Dermis", "setting": "[1]; [12]", "result": "49.16 ^ ng"}, {"measurement": "Amount of Fingolimod recovered, ng, Receptor fluid", "setting": "[1]; [12]", "result": "ND (not detected (below LOQ of 0.25 ng/mL))"}, {"measurement": "Amount of Fingolimod recovered, % applied dose, Dermis", "setting": "[1]; [13]", "result": 1.44, "unit": "%"}, {"measurement": "Amount of Fingolimod recovered, % applied dose, Epidermis", "setting": "[1]; [13]", "result": 1.59, "unit": "%"}, {"measurement": "Amount of Fingolimod recovered, % applied dose, Receptor fluid", "setting": "[1]; [13]", "result": "ND (not detected (below LOQ of 0.25 ng/ml))"}, {"measurement": "Amount of Fingolimod recovered, ng, Dermis", "setting": "[1]; [13]", "result": 14.82, "unit": "ng"}, {"measurement": "Amount of Fingolimod recovered, ng, Epidermis", "setting": "[1]; [13]", "result": 16.21, "unit": "ng"}, {"measurement": "Amount of Fingolimod recovered, ng, Receptor fluid", "setting": "[1]; [13]", "result": "ND (not detected (below LOQ of 0.25 ng/ml))"}, {"measurement": "Assay of Fingolimod, % LC", "setting": "[2]; 2 months at 40° C.", "result": 97.2, "unit": "% LC"}, {"measurement": "Assay of Fingolimod, % LC", "setting": "[2]; 2 months at 50° C.", "result": 95.0, "unit": "% LC"}, {"measurement": "Assay of Fingolimod, % LC", "setting": "[2]; 3 weeks at 5° C.", "result": 100.3, "unit": "% LC"}, {"measurement": "Assay of Fingolimod, % LC", "setting": "[2]; 3 weeks at 40° C.", "result": 99.9, "unit": "% LC"}, {"measurement": "Assay of Fingolimod, % LC", "setting": "[2]; 3 weeks at 50° C.", "result": 94.1, "unit": "% LC"}, {"measurement": "Assay of Fingolimod, % LC", "setting": "[2]; Initial", "result": 99.9, "unit": "% LC"}, {"measurement": "barrier function (biotin immunofluorescence)", "setting": "[3]; 0.001% w/w and 0.01% w/w", "result": "reduced the Th2-induced barrier alteration"}, {"measurement": "tissue morphology (histology)", "setting": "[3]; 0.001% w/w and 0.01% w/w", "result": "reduced the Th2-induced barrier alteration"}, {"measurement": "barrier function (biotin immunofluorescence)", "setting": "[3]; 0.1% and 1%", "result": "Increased barrier alteration"}, {"measurement": "tissue morphology (histology)", "setting": "[3]; 0.1% w/w and 1% w/w", "result": "increased fragilization was observed with junction/adhesion loss and disorganization of cell layers"}, {"measurement": "visual solubility at RT", "setting": "[4]; alcohols", "result": "very good solubility"}, {"measurement": "visual solubility at RT", "setting": "[4]; most of organic solvents tested", "result": "good solubility"}, {"measurement": "solubility", "setting": "[4]; Diisopropyloxide", "result": "< 1.1", "unit": "mg/mL"}, {"measurement": "solubility", "setting": "[4]; Ethanol", "result": "> 20", "unit": "mg/mL"}, {"measurement": "solubility", "setting": "[4]; Methanol", "result": "> 20", "unit": "mg/mL"}, {"measurement": "solubility", "setting": "[4]; Toluene", "result": "< 1.7", "unit": "mg/mL"}, {"measurement": "visual solubility at RT", "setting": "[4]; water, toluene, diisopropyloxide and methyl ethyl ketone", "result": "very low soluble"}, {"measurement": "whole blood concentrations (all below the assay LLOQ)", "setting": "[5]", "result": "< 0.08", "unit": "ng/mL"}, {"measurement": "solubility", "setting": "[6]; organic solvents, such as ethanol, DMSO and dimethyl formamide", "result": "soluble"}, {"measurement": "solubility", "setting": "[6]; water", "result": "sparingly soluble"}, {"measurement": "quantifiability in blood", "setting": "[7]", "result": "not quantifiable"}, {"measurement": "human equivalent dose (HED)", "setting": "[8]; from minipig NOAEL, minipig 10 kg, human 60 kg", "result": 2.21, "unit": "mg/kg/day"}, {"measurement": "safety factor over the NOAEL of the 6-week minipig dermal toxicity study", "setting": "[8]; maximum daily application of 2 g dual active gel", "result": 669, "unit": "fold"}]}
{"compound": "fingolimod-phosphate", "values": [{"measurement": "quantifiability in blood", "setting": "[9]", "result": "only quantifiable in the 0.2% fingolimod gel group"}, {"measurement": "whole blood concentrations (all below the assay LLOQ)", "setting": "[5]", "result": "< 0.08", "unit": "ng/mL"}, {"measurement": "affinity for four of the five S1P receptors", "setting": "[10]", "result": "0.3 to 3.1", "unit": "nM"}]}
